Results from US4122274A, “3-Tetrazolo-5,6,7,8-substituted-pyrido[1,2-a]pyrimidin-4-ones” (priority 1977, dated 1978).
Where two headings read alike, the source gives them in different places.

Columns and labels:
[1] = treatment of bronchial asthma; cited from earlier work
[2] = system: rat Passive Cutaneous Anaphylaxis (PCA) response; experiment: reagin-mediated rat Passive Cutaneous Anaphylaxis (PCA) screening test; type: in vivo, rat (Sprague-Dawley)
Procedure: The reagin-mediated rat Passive Cutaneous Anaphylaxis (PCA) screening test used to evaluate the present compounds is generally regarded as one of the best animal models for use in predicting the antiallergy activity of test compounds in man. Briefly, the method consists of passive sensitization of skin sites on the test animals with reaginic antibodies followed after 24 hours by administration of the test drug and antigen challenge. The allergic response is measured by use of Evans' blue dye and is evaluated by the spot diameter at the injection site. Details of the test are provided below.
A substituted ovalbumin antigen is used both as immunogen and challenging antigen. The antigen is prepared as follows: 500 mg. ovalbumin (EA) and 500 mg. K2 CO3 are dissolved in 25 ml. distilled H2 O and stirred at room temperature for 5 minutes. Five hundred (500) mg. dinitrobenzene sulfonic acid, Na^+ salt, (previously recrystallized from hot absolute ethanol) is then added slowly with continued stirring. The reaction mixture is then immediately placed in the dark and allowed to proceed for 2 hours with constant stirring. After 2 hours the mixture is placed in suitable dialysis tubing and dialyzed against 5 changes (4 liters each) of distilled H2 O at 5° C. After dialysis the product is lyophilized and stored at room temperature in a brown or amber container. The antigen obtained will appear as a light yellow, amorphous solid which is very soluble in water or saline. It is designated as DNP denatured ovalbumin (DNP-d EA).
Adult, male Sprague-Dawley rats are used as a source of reagin-rich antisera for the PCA model. Immunization is by a combination of DNP-d EA on Al(OH)3 gel and B. pertussis vaccine. Preparation of the DNP-d EA-gel immunogen is as follows: Dissolve the DNP-d EA in TBS so as to give a concentration of 10 mg./ml. Slowly add 1 ml. of this solution to 10 ml. Al(OH)3 gel (10 mg. solids/ml.) with constant stirring at room temperature. Stir the mixture an additional 30 minutes to insure a uniform adsorption of antigen on gel.
The resulting preparation is then used in combination with phase I B. pertussis vaccine to immunize male S/D rats as follows: For each rat administer 0.1 ml. DNP-d EA-gel suspension intramuscularly in each hind leg (200 μg DNP-d EA and 2 mg. gel total dose). Follow these injections by the intraperitoneal administration of 1.0 ml. B. pertussis vaccine (10-20 × 10^9 organisms). The use of light ether anesthesia during this procedure is recommended to insure proper intramuscular and intraperitoneal injections. Nine days following immunization (but no longer than 10) the animals are exsanguinated by cardiac puncture or abdominal aorta cannulation under ether or pentobarbital anesthesia. The collected whole blood is allowed to clot, the serum separated by centrifugation and the individual serum samples stored frozen until assayed for IgE content.
Individual serum samples should be screened for reaginic antibody concentration before being pooled with other sera, as not all rats respond to immunization procedures with reagin production. A 1:50 saline dilution of serum from each immunized rat is used for this purpose. Intradermal injections of 0.05 ml. of the diluted sera are made in the shaven backs of two small female recipient rats, 100-120 gms. Several serum samples can be tested simultaneously in recipient animals. After a 24 to 48 hour latent period antigen challenge is accomplished by intravenous administration to each rat of 1 mg. DNP-d EA in 0.5 ml. of 0.5% Evans' blue dye in saline. Sera which show positive PCA reactions at the 1:50 dilution, as measured 20 to 30 minutes post-challenge are pooled, dispensed in small aliquots and stored at -70° C. or lower until used. Negative sera may be discarded.
The IgE titer of the antisera pool should then be determined. […]

[3] = system: release of mediators, e.g. histamine and SRS-A; details: administered to asthmatic patients prior to inhalation of specific antigens; cited from earlier work
[4] = must be administered by inhalation; cited from earlier work
[5] = iv, test compounds given 1-5 min prior to antigen challenge, DSCG at time of challenge, read-out: ID50 (dose of compound that inhibits 50% of the response), i.v.
[6] = po, 10 min prior to antigen challenge, read-out: ID50 (dose of compound that inhibits 50% of the response), p.o.

| SMILES | ED50 [2, 6] [mg/kg] | also measured |
| --- | --- | --- |
| CNC[C@H](O)c1ccc(O)c(O)c1 [epinephrine] | – | side effects [1]: cardiac stimulation and gastrointestinal distress |
| CN1[C@@H]2CC[C@H]1C[C@@H](OC(=O)C(CO)c1ccccc1)C2 (stereo partly drawn) [atropine] | – | side effects [1]: cardiac stimulation and gastrointestinal distress |
| O=c1c(-c2nnn[nH]2)cnc2ccccn12 [Example 1, 3-(1H-Tetrazol-5-yl)-4H-pyrido[1,2-a]pyrimidin-4-one] | ~0.1 | ED50 [2, 5]: 0.06 mg/kg |
| CC(C)NCC(O)c1ccc(O)c(O)c1 (stereo not drawn) [isoproterenol] | – | side effects [1]: cardiac stimulation and gastrointestinal distress |
| Cc1cc(C)c2ncc(-c3nnn[nH]3)c(=O)n2c1 [Example 11, 7,9-Dimethyl-3-(1H-tetrazol-5-yl)-4H-pyrido[1,2-a]pyrimidin-4-one] | 0.014 | – |
| CCCCc1ccc2ncc(-c3nnn[nH]3)c(=O)n2c1 [Example 7, 7-n-Butyl-3-(1H-tetrazol-5-yl)-4H-pyrido[1,2-a]pyrimidin-4-one] | ~0.1 | – |
| O=c1c(-c2nnn[nH]2)cnc2ccc(-c3ccccc3)cn12 [Example 8, 7-Phenyl-3-(1H-tetrazol-5-yl)-4H-pyrido[1,2-a]pyrimidin-4-one] | 0.05 | – |
| O=c1c(-c2nnn[nH]2)cnc2ccc(Cl)cn12 [Example 9, 7-Chloro-3-(1H-tetrazol-5-yl)-4H-pyrido[1,2-a]pyrimidin-4-one] | ~0.07 | – |
| CCc1ccc2ncc(-c3nnn[nH]3)c(=O)n2c1 [Example 6, 7-Ethyl-3-(1H-tetrazol-5-yl)-4H-pyrido[1,2-a]pyrimidin-4-one] | 0.04 | – |
| O=C(O)c1cc(=O)c2c(OCC(O)COc3cccc4oc(C(=O)O)cc(=O)c34)cccc2o1 [DSCG, Disodium cromoglycate, reference compound] | > 30 | ED50 [2, 5]: ~0.6 mg/kg; inhibition of release of mediators, e.g. histamine and SRS-A [3]: inhibits the release of mediators; oral absorption [4]: not orally absorbed |
| Cc1ccn2c(=O)c(-c3nnn[nH]3)cnc2c1 [Example 5, 8-Methyl-3-(1H-tetrazol-5-yl)-4H-pyrido[1,2-a]pyrimidin-4-one] | 2.4 | – |
| Cc1cccn2c(=O)c(-c3nnn[nH]3)cnc12 [Example 10, 9-Methyl-3-(1H-tetrazol-5-yl)-4H-pyrido[1,2-a]pyrimidin-4-one] | 0.0066 | – |
| Cc1ccc2ncc(-c3nnn[nH]3)c(=O)n2c1 [Example 4, 7-Methyl-3-(1H-tetrazol-5-yl)-4H-pyrido[1,2-a]pyrimidin-4-one] | ~0.1 | – |
| CCc1cccn2c(=O)c(-c3nnn[nH]3)cnc12 [Example 12, 9-Ethyl-3-(1H-tetrazol-5-yl)-4H-pyrido[1,2-a]pyrimidin-4-one] | ~0.0033 | – |
